# Reference: patent publication US20230124862A1, “BISMUTH THIOL COMPOUNDS AND COMPOSITIONS AND METHODS OF TREATING MICROBIAL CO-INFECTIONS” (Microbion Corporation, priority 2020, published 2023)
# Where two headings read alike, the source gives them in different places.
# Legend:
# Candida spp. [1] = experiment: Broth microdilution MIC (Example 11); assay type: cell-based, C. parapsilosis, C. albicans, C. glabrata, C. tropicalis
# Candida krusei [2] = experiment: Antifungal broth microdilution (Example 13); assay type: cell-based; details: C. krusei ATCC 6258, comparators, single value
# Aspergillus spp. [3] = experiment: Antifungal broth microdilution (Example 13); assay type: cell-based, A. niger, A. terreus, A. fumigatus, A. flavus
# [4] = tested on: C. parapsilosis ATCC 22019; experiment: Antifungal broth microdilution (Example 13), QC organism; assay type: cell-based, Candida parapsilosis; details: comparators, single value
# Candida spp. [5] = details: C. parapsilosis MMX 2323 (ATCC 22019), cited from earlier work
# Candida krusei [6] = details: C. krusei ATCC 6258, CLSI established QC range, cited from earlier work
# Aspergillus spp. [7] = details: cited from earlier work
# [8] = tested on: C. parapsilosis ATCC 22019; details: C. parapsilosis ATCC 22019, CLSI established QC range, cited from earlier work
# E. coli ATCC 25922 = experiment: MIC control strain; details: QC organism, Example 13
# S. aureus ATCC 29213 = experiment: MIC control strain; details: QC organism, Example 13
# fungal pathogens = experiment: Antifungal activity, NIH/NIAID sponsored study; assay type: cell-based; details: 100% endpoint
# [9] = tested on: Gram-positive organisms (S. aureus, S. pneumoniae); experiment: Broth microdilution MIC with pulmonary surfactant (Survanta); assay type: cell-based, Staphylococcus aureus, Streptococcus pneumoniae
# [10] = tested on: Gram-positive organisms (S. aureus, S. pneumoniae); details: cited from earlier work
# [11] = A. flavus ATCC 204304, CLSI established QC range
# [12] = A. fumigatus ATCC MYA-3626, CLSI established QC range
compound,measurement,setting,value
C[C@@H]1[C@H](O)[C@@H](C)/C=C/C=C/C=C/C=C/C=C/C=C/C=C/[C@H](O[C@@H]2O[C@H](C)[C@@H](O)[C@H](N)[C@@H]2O)C[C@@H]2O[C@](O)(C[C@@H](O)C[C@@H](O)[C@H](O)CC[C@@H](O)C[C@@H](O)CC(=O)O[C@H]1C)C[C@H](O)[C@H]2C(=O)O [Amphotericin B],MIC,"Candida spp. [1]; C. albicans MMX 7039, Sensitive, incubation 24 hr","0.5, 0.5 μg/mL"
same,MIC,"Candida spp. [1]; C. albicans MMX 7039, Sensitive, incubation 48 hr","0.5, 0.5 μg/mL"
same,MIC,"Candida spp. [1]; C. albicans MMX 7055, Sensitive, incubation 24 hr",0.25 µg/mL
same,MIC,"Candida spp. [1]; C. albicans MMX 7055, Sensitive, incubation 48 hr",0.5 µg/mL
same,MIC,"Candida spp. [1]; C. glabrata MMX 7318, FLU^R, incubation 24 hr",0.5 µg/mL
same,MIC,"Candida spp. [1]; C. glabrata MMX 7318, FLU^R, incubation 48 hr",1 µg/mL
same,MIC,"Candida spp. [1]; C. glabrata miX 7086, FLU^R, incubation 24 hr",0.5 µg/mL
same,MIC,"Candida spp. [1]; C. glabrata miX 7086, FLU^R, incubation 48 hr",1 µg/mL
same,MIC,"Candida spp. [1]; C. parapsilosis MMX 2323 (ATCC 22019), QC, incubation 24 hr",0.5 µg/mL
same,MIC,"Candida spp. [1]; C. parapsilosis MMX 2323 (ATCC 22019), QC, incubation 48 hr",1 µg/mL
same,MIC,"Candida spp. [1]; C. parapsilosis MMX 7370, FLU^R, incubation 24 hr",0.5 µg/mL
same,MIC,"Candida spp. [1]; C. parapsilosis MMX 7370, FLU^R, incubation 48 hr",1 µg/mL
same,MIC,"Candida spp. [1]; C. parapsilosis MMX 7555, FLU^R, incubation 24 hr","0.5, 0.5 μg/mL"
same,MIC,"Candida spp. [1]; C. parapsilosis MMX 7555, FLU^R, incubation 48 hr","0.5, 0.5 μg/mL"
same,MIC,"Candida spp. [1]; C. tropicalis MMX 7247, FLU^R, incubation 24 hr",0.5 µg/mL
same,MIC,"Candida spp. [1]; C. tropicalis MMX 7247, FLU^R, incubation 48 hr",1 µg/mL
same,MIC,"Candida spp. [1]; C. tropicalis MMX 7248, FLU^R, incubation 24 hr",0.5 µg/mL
same,MIC,"Candida spp. [1]; C. tropicalis MMX 7248, FLU^R, incubation 48 hr",1 µg/mL
same,MIC,"Candida spp. [1]; C. tropicalis MMX 7360, FLU^R, incubation 24 hr","0.5, 0.5 μg/mL"
same,MIC,"Candida spp. [1]; C. tropicalis MMX 7360, FLU^R, incubation 48 hr","0.5, 0.5 μg/mL"
same,MIC 24 hr,Candida krusei [2],0.5 µg/mL
same,MIC 48 hr,Candida krusei [2],0.5 µg/mL
same,MIC 24 hr,Aspergillus spp. [3]; A. flavus ATCC 204304,0.5 µg/mL
same,MIC 48 hr,Aspergillus spp. [3]; A. flavus ATCC 204304,1 µg/mL
same,MIC 24 hr,Aspergillus spp. [3]; A. fumigatus ATCC MYA-3626,0.5 µg/mL
same,MIC 48 hr,Aspergillus spp. [3]; A. fumigatus ATCC MYA-3626,1 µg/mL
same,MIC 24 hr,[4],0.5 µg/mL
same,MIC 48 hr,[4],0.5 µg/mL
same,CLSI QC range of MIC,Candida spp. [5]; 24 hr,0.25 to 2 µg/mL
same,CLSI QC range of MIC,Candida spp. [5]; 48 hr,0.5 to 4 µg/mL
same,QC Range 24 hr,Candida krusei [6],0.5-2
same,QC Range 48 hr,Candida krusei [6],1-4
same,QC Range 48 hr,Aspergillus spp. [7]; [11],0.5-4
same,QC Range 48 hr,Aspergillus spp. [7]; [12],0.5-4
same,QC Range 24 hr,[8],0.25-2
same,QC Range 48 hr,[8],0.5-4
same,MIC 24 hr,E. coli ATCC 25922,>64
same,MIC 24 hr,S. aureus ATCC 29213,>64
C[C@@H](c1ncncc1F)[C@](O)(Cn1cncn1)c1ccc(F)cc1F [Voriconazole],MIC 24 hr,Candida krusei [2],0.12 µg/mL
same,MIC 48 hr,Candida krusei [2],0.5 µg/mL
same,MIC 24 hr,Aspergillus spp. [3]; A. flavus ATCC 204304,0.12 µg/mL
same,MIC 48 hr,Aspergillus spp. [3]; A. flavus ATCC 204304,2 µg/mL
same,MIC 24 hr,Aspergillus spp. [3]; A. fumigatus ATCC MYA-3626,0.25 µg/mL
same,MIC 48 hr,Aspergillus spp. [3]; A. fumigatus ATCC MYA-3626,0.5 µg/mL
same,MIC,"fungal pathogens; Aspergillus fumigatus, read-out: Antifungal activity, MIC 100%, A. fumigatus AF1",0.5 µg/mL
same,MIC,"fungal pathogens; Aspergillus fumigatus, read-out: Antifungal activity, MIC 100%, A. fumigatus AF2",4 µg/mL
same,MIC,"fungal pathogens; Aspergillus fumigatus, read-out: Antifungal activity, MIC 100%, A. fumigatus AF3",8 µg/mL
same,MIC,"fungal pathogens; Blastomyces dermatitidis, read-out: Antifungal activity, MIC 100%, B. dermatitidis BD1",0.125 µg/mL
same,MIC,"fungal pathogens; Blastomyces dermatitidis, read-out: Antifungal activity, MIC 100%, B. dermatitidis BD2",≤ 0.03 µg/mL
same,MIC,"fungal pathogens; Blastomyces dermatitidis, read-out: Antifungal activity, MIC 100%, B. dermatitidis BD3",0.06 µg/mL
same,MIC,"fungal pathogens; Paecilomyces variotii, read-out: Antifungal activity, MIC 100%, P. variotii CLSI QC",0.125 µg/mL
same,MIC 24 hr,[4],0.12 µg/mL
same,MIC 48 hr,[4],0.12 µg/mL
same,QC Range 24 hr,Candida krusei [6],0.06-0.5
same,QC Range 48 hr,Candida krusei [6],0.12-1
same,QC Range 48 hr,Aspergillus spp. [7]; [11],0.5-4
same,QC Range 48 hr,Aspergillus spp. [7]; [12],0.25-1
same,QC Range 24 hr,[8],0.015-0.12
same,QC Range 48 hr,[8],0.03-0.25
same,MIC 24 hr,E. coli ATCC 25922,>64
same,MIC 24 hr,S. aureus ATCC 29213,>64
CCCCCCCCCC(=O)N[C@@H](Cc1c[nH]c2ccccc12)C(=O)N[C@H](CC(N)=O)C(=O)N[C@@H](CC(=O)O)C(=O)N[C@@H]1C(=O)NCC(=O)N[C@@H](CCCN)C(=O)N[C@@H](CC(=O)O)C(=O)N[C@H](C)C(=O)N[C@@H](CC(=O)O)C(=O)NCC(=O)N[C@H](CO)C(=O)N[C@@H]([C@H](C)CC(=O)O)C(=O)N[C@@H](CC(=O)c2ccccc2N)C(=O)O[C@@H]1C [daptomycin],effect of Survanta addition on MIC values,[9]; S. aureus and S. pneumoniae,increased
same,MIC,"[9]; S. pneumoniae ATCC 49619, 0 percent Survanta",0.06 µg/mL
same,MIC,"[9]; S. pneumoniae ATCC 49619, 1 percent Survanta",0.25 µg/mL
same,MIC,"[9]; S. pneumoniae ATCC 49619, 2.5 percent Survanta",1 µg/mL
same,MIC,"[9]; S. pneumoniae MMX 3162, 0 percent Survanta",0.12 µg/mL
same,MIC,"[9]; S. pneumoniae MMX 3162, 1 percent Survanta",0.25 µg/mL
same,MIC,"[9]; S. pneumoniae MMX 3162, 2.5 percent Survanta",0.25 µg/mL
same,MIC,"[9]; Staphylococcus aureus, ATCC29213, S. aureus ATCC 29213, 0 percent Survanta",0.5 µg/mL
same,MIC,"[9]; Staphylococcus aureus, ATCC29213, S. aureus ATCC 29213, 1 percent Survanta",16 µg/mL
same,MIC,"[9]; Staphylococcus aureus, ATCC29213, S. aureus ATCC 29213, 2.5 percent Survanta",32 µg/mL
same,MIC,"[9]; Staphylococcus aureus, ATCC29213, S. aureus ATCC 29213, 5 percent Survanta",> 32 µg/mL
same,MIC,"[9]; Staphylococcus aureus, ATCC29213, S. aureus ATCC 29213, 10 percent Survanta",> 32 µg/mL
same,MIC,"[9]; Staphylococcus aureus, ATCC43300, S. aureus ATCC 43300, 0 percent Survanta",0.25 µg/mL
same,MIC,"[9]; Staphylococcus aureus, ATCC43300, S. aureus ATCC 43300, 1 percent Survanta",8 µg/mL
same,MIC,"[9]; Staphylococcus aureus, ATCC43300, S. aureus ATCC 43300, 2.5 percent Survanta",16 µg/mL
same,MIC,"[9]; Staphylococcus aureus, ATCC43300, S. aureus ATCC 43300, 5 percent Survanta",16 µg/mL
same,MIC,"[9]; Staphylococcus aureus, ATCC43300, S. aureus ATCC 43300, 10 percent Survanta",> 32 µg/mL
same,CLSI acceptable MIC QC range,[10]; S. aureus ATCC 29213,(0.12-1) μg/mL
same,CLSI acceptable MIC QC range,[10]; S. pneumoniae ATCC 49619,(0.06-0.5) μg/mL
